ChEMBL document CHEMBL1201862, “PubChem BioAssay data set” (2004)
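Dose response: 5 concentrations. Exposure: 48 h. Format: 96-well plates. Endpoint: linear interpolation; highest concentration if not reached. Here, GI50 denotes the concentration required for 50% inhibition of growth.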 Activity calls are given as the source filed them. Cut-off read from the data, not from the text of the source: active = GI50 up to about 1.1 µM and inactive = higher.

Tests used:
Test in all cases: growth of human tumour cells (NCI), 48 h
[1] = test system: DU-145
[2] = test system: HOP-62
[3] = test system: NCI-H226
[4] = test system: COLO 205
[5] = test system: NCI-H23
[6] = test system: NCI/ADR-RES
[7] = test system: BT-549
[8] = test system: SW-620
[9] = test system: T47D
[10] = test system: NCI-H522
[11] = test system: UO-31
[12] = test system: MDA-MB-231
[13] = test system: MOLT-4
[14] = test system: OVCAR-8
[15] = test system: OVCAR-3
[16] = test system: SK-MEL-28
[17] = test system: CAKI-1
[18] = test system: ACHN
[19] = test system: SK-OV-3
[20] = test system: RPMI-8226

SMILES | GI50 [1] | GI50 [2] | GI50 [3] | GI50 [4] | GI50 [5] | GI50 [6] | GI50 [7] | GI50 [8] | GI50 [9] | GI50 [10] | GI50 [11] | GI50 [12] | GI50 [13] | GI50 [14] | GI50 [15] | GI50 [16] | GI50 [17] | GI50 [18] | GI50 [19] | GI50 [20]
COC1CC(O[C@H]2CC[C@@]3(C)[C@@H](CC[C@]4(O)[C@@H]3CC[C@]3(C)[C@@H](C(C)=O)[C@H](OC(=O)CC(C)C)[C@@H](OC(=O)c5ccccc5)[C@@]34O)C2)OC(C)C1OC1CC(OC)C(OC2OC(C)C(O)C(OC)C2O)C(C)O1 (stereo partly specified) | > 25 µM (inactive) | 16 µM (inactive) | 13.6 µM (inactive) | 5.13 µM (inactive) | > 25 µM (inactive) | 19.9 µM (inactive) | > 25 µM (inactive) | > 25 µM (inactive) | 8 µM (inactive) | 13.1 µM (inactive) | 9.46 µM (inactive) | 18.4 µM (inactive) | 7.08 µM (inactive) | 20 µM (inactive) | 11.8 µM (inactive) | > 25 µM (inactive) | 17.7 µM (inactive) | 24.4 µM (inactive) | > 25 µM (inactive) | 6.12 µM (inactive)
Cc1ccc(C2=CC(=O)/C(=C\C(=O)c3ccc(Cl)cc3)O2)cc1 | 32.6 µM (inactive) | 97.9 µM (inactive) | 17.2 µM (inactive) | 13.3 µM (inactive) | 24.2 µM (inactive) | 15.5 µM (inactive) | 1.86 µM (inactive) | 2.39 µM (inactive) | 7.18 µM (inactive) | 1.97 µM (inactive) | 9.51 µM (inactive) | 12.1 µM (inactive) | 3.94 µM (inactive) | 3.13 µM (inactive) | 4.7 µM (inactive) | 16.9 µM (inactive) | 2.3 µM (inactive) | 5.09 µM (inactive) | 6.43 µM (inactive) | 2.08 µM (inactive)
O=C(O)CSCc1cccc2ccccc12 | > 100 µM (inactive) | > 100 µM (inactive) | > 100 µM (inactive) | > 100 µM (inactive) | > 100 µM (inactive) | > 100 µM (inactive) | > 100 µM (inactive) | > 100 µM (inactive) | > 100 µM (inactive) | > 100 µM (inactive) | > 100 µM (inactive) | > 100 µM (inactive) | > 100 µM (inactive) | > 100 µM (inactive) | > 100 µM (inactive) | > 100 µM (inactive) | > 100 µM (inactive) | > 100 µM (inactive) | > 100 µM (inactive) | > 100 µM (inactive)
C=C1CC[C@@H]2[C@](C)(COC(=O)CCC(=O)O)CCC[C@@]2(C)[C@@H]1CCC1=CC(=O)OC1 | 5.97 µM (inactive) | > 100 µM (inactive) | > 100 µM (inactive) | > 100 µM (inactive) | > 100 µM (inactive) | > 100 µM (inactive) | > 100 µM (inactive) | > 100 µM (inactive) | > 100 µM (inactive) | > 100 µM (inactive) | > 100 µM (inactive) | > 100 µM (inactive) | > 100 µM (inactive) | > 100 µM (inactive) | > 100 µM (inactive) | > 100 µM (inactive) | > 100 µM (inactive) | > 100 µM (inactive) | > 100 µM (inactive) | > 100 µM (inactive)
C=C1CC(C)(COc2ccc3c(C)c(Cl)c(=O)oc3c2)OC1=O (stereo unspecified) | 2.4 µM (inactive) | 10.3 µM (inactive) | 2.83 µM (inactive) | 0.729 µM (active) | 1.21 µM (inactive) | 2.35 µM (inactive) | 1.31 µM (inactive) | 0.461 µM (active) | 0.361 µM (active) | 0.632 µM (active) | 3.34 µM (inactive) | 3.53 µM (inactive) | 1.05 µM (active) | 2.75 µM (inactive) | 2.89 µM (inactive) | 2.42 µM (inactive) | 0.59 µM (active) | 2.82 µM (inactive) | 4.88 µM (inactive) | 0.391 µM (active)
Oc1ccc(Cl)cc1-c1nc(S)nc(-c2ccccc2)c1Cl | > 70.6 µM (inactive) | 31.1 µM (inactive) | > 100 µM (inactive) | > 100 µM (inactive) | > 100 µM (inactive) | > 100 µM (inactive) | 44.7 µM (inactive) | > 100 µM (inactive) | > 100 µM (inactive) | > 31.6 µM (inactive) | > 88.5 µM (inactive) | > 56.4 µM (inactive) | > 100 µM (inactive) | > 100 µM (inactive) | > 100 µM (inactive) | > 100 µM (inactive) | 48.1 µM (inactive) | > 90.8 µM (inactive) | > 96.4 µM (inactive) | > 100 µM (inactive)
CCCCc1ccc(Nc2nc3ncnc-3c[nH]2)cc1 | 15.9 µM (inactive) | 17.7 µM (inactive) | 15.9 µM (inactive) | 16.7 µM (inactive) | 18.2 µM (inactive) | 18.3 µM (inactive) | 25.7 µM (inactive) | 20.4 µM (inactive) | 19.1 µM (inactive) | 21.6 µM (inactive) | 12.5 µM (inactive) | 12.8 µM (inactive) | 14.3 µM (inactive) | 17.8 µM (inactive) | 14.2 µM (inactive) |  | 19.4 µM (inactive) | 15.2 µM (inactive) | 18.4 µM (inactive) | 14.8 µM (inactive)
C=C(C)C(=O)O[C@H]1C/C(CO)=C/CCC(=C)C(OC(C)=O)[C@H]2OC(=O)C(=C)[C@H]12 (stereo partly specified) | 17 µM (inactive) | 26.2 µM (inactive) | 40.8 µM (inactive) | 4.5 µM (inactive) | 10.3 µM (inactive) | 4.7 µM (inactive) | 4.41 µM (inactive) | 3.87 µM (inactive) | 6.95 µM (inactive) | 3.45 µM (inactive) | 5.19 µM (inactive) | 11.1 µM (inactive) | 1.96 µM (inactive) | 16.2 µM (inactive) | 6.44 µM (inactive) | 7.76 µM (inactive) | 9.84 µM (inactive) | 8.45 µM (inactive) | 44.9 µM (inactive) | 1.82 µM (inactive)
O=[N+]([O-])c1ccc2c(c1)/C(=N/N=C1c3ccccc3Cc3ccccc31)c1cc([N+](=O)[O-])cc([N+](=O)[O-])c1-2 | 5.82 µM (inactive) | 3.01 µM (inactive) | 13.4 µM (inactive) | 3.21 µM (inactive) | 1.96 µM (inactive) | 2.19 µM (inactive) | 1.52 µM (inactive) | 3.28 µM (inactive) | 1.78 µM (inactive) | 1.63 µM (inactive) | 2.05 µM (inactive) | 2.62 µM (inactive) | 1.91 µM (inactive) | 1.67 µM (inactive) | 1.69 µM (inactive) | 3.45 µM (inactive) | 3.6 µM (inactive) | 2.99 µM (inactive) | 14.2 µM (inactive) | 4.39 µM (inactive)
O=c1/c(=C/c2ccc(-c3ccc(Cl)cc3Cl)o2)sc2n1[C@@H](c1ccc3c(c1)OCO3)C=C(c1cc(F)c(Cl)cc1Cl)N=2 | 63.7 µM (inactive) | 5.87 µM (inactive) | 20.7 µM (inactive) | 38.7 µM (inactive) | 38.5 µM (inactive) | 45.9 µM (inactive) | 37.8 µM (inactive) | 35.8 µM (inactive) | 21.1 µM (inactive) | 49.1 µM (inactive) | 31.7 µM (inactive) | 22.6 µM (inactive) | 28.2 µM (inactive) | 42 µM (inactive) |  | 91.8 µM (inactive) | > 100 µM (inactive) | 69.2 µM (inactive) | 21.5 µM (inactive) | 26.1 µM (inactive)
O=C(NNC(=S)Nc1ccc(Cl)cc1)c1cc(-c2ccccc2)nc2ccccc12 | 4.23 µM (inactive) | 6.12 µM (inactive) | 11.5 µM (inactive) | 4.99 µM (inactive) | 4.94 µM (inactive) | 5.27 µM (inactive) | 4.6 µM (inactive) | 4.91 µM (inactive) | 2.33 µM (inactive) | 5.64 µM (inactive) | 5.28 µM (inactive) | 12.2 µM (inactive) | 4.24 µM (inactive) | 8.11 µM (inactive) | 2.66 µM (inactive) | 3.31 µM (inactive) | 4.71 µM (inactive) | 10 µM (inactive) | 7.82 µM (inactive) | 4.08 µM (inactive)
O=C1NC2(CCCCC2)C(=O)N1CCN(CCCl)CCCl [SPIROMUSTINE] | > 25 µM (inactive) | 107 µM (inactive) | > 250 µM (inactive) | > 230 µM (inactive) | 106 µM (inactive) | 136 µM (inactive) | > 25 µM (inactive) | 102 µM (inactive) | 23.9 µM (inactive) | 65.5 µM (inactive) | 218 µM (inactive) | > 25 µM (inactive) | 34.2 µM (inactive) | 129 µM (inactive) |  | 97.5 µM (inactive) | 41.8 µM (inactive) | 23.1 µM (inactive) | 171 µM (inactive) | 134 µM (inactive)
COc1ccc(-c2sc(Br)c3c2C(=O)C2OC(=O)NC32)cc1OC (stereo unspecified) | > 100 µM (inactive) | > 100 µM (inactive) | > 100 µM (inactive) | > 100 µM (inactive) | > 100 µM (inactive) | > 100 µM (inactive) | > 100 µM (inactive) | > 100 µM (inactive) | > 100 µM (inactive) | > 100 µM (inactive) | > 100 µM (inactive) | > 100 µM (inactive) | > 100 µM (inactive) | > 100 µM (inactive) | > 100 µM (inactive) |  | > 100 µM (inactive) | > 100 µM (inactive) | > 100 µM (inactive) | > 100 µM (inactive)
